In patent publication US10385048B2, “Pesticidally active polycyclic derivatives with sulfur containing substituents” (Syngenta Participations AG, priority 2014, dated 2019):

Experiments:
Type in all cases: in vivo
Diabrotica Balteata = experiment: Diabrotica balteata (corn root worm), maize sprouts, L2 larvae; conditions: 96 h, application rate 200 ppm, 4 days after infestation, read-out: effect in at least one of the two categories (mortality or growth inhibition)
Protocol: Example B2: Diabrotica Balteata (Corn Root Worm)
Maize sprouts placed onto an agar layer in 24-well microtiter plates were treated with aqueous test solutions prepared from 10′000 ppm DMSO stock solutions by spraying. After drying, the plates were infested with L2 larvae (6 to 10 per well). The samples were assessed for mortality and growth inhibition in comparison to untreated samples 4 days after infestation.

Euschistus heros = Euschistus heros (neotropical brown stink bug), soybean leaves, N2 nymphs; conditions: 120 h, application rate 200 ppm, 5 days after infestation, read-out: effect in at least one of the two categories (mortality or growth inhibition)
Protocol: Example B3: Euschistus heros (Neotropical Brown Stink Bug)
Soybean leaves on agar in 24-well microtiter plates were sprayed with aqueous test solutions prepared from 10′000 ppm DMSO stock solutions. After drying the leaves were infested with N2 nymphs. The samples were assessed for mortality and growth inhibition in comparison to untreated samples 5 days after infestation.

Plutella xylostella = Plutella xylostella (diamond back moth), artificial diet, L2 larvae; conditions: 120 h, application rate 200 ppm, 5 days after infestation, read-out: effect in at least one of the two categories (mortality or growth inhibition)
Protocol: Example B7: Plutella xylostella (Diamond Back Moth)
24-well microtiter plates with artificial diet were treated with aqueous test solutions prepared from 10′000 ppm DMSO stock solutions by pipetting. After drying, the plates were infested with L2 larvae (10 to 15 per well). The samples were assessed for mortality and growth inhibition in comparison to untreated samples 5 days after infestation.

Myzus persicae [1] = experiment: Myzus persicae (green peach aphid) systemic activity, pea seedling roots; conditions: 144 h, test rate 24 ppm, 6 days after placing seedlings into test solutions
Spodoptera littoralis [2] = experiment: Spodoptera littoralis (Egyptian cotton leaf worm), uptake by lettuce roots from agar, eggs; conditions: 144 h, test rate 12.5 ppm, lettuce root uptake, 6 days after infestation, read-out: effect in at least one of the three categories (mortality, anti-feeding, or growth inhibition)
Text: Example B9: Spodoptera littoralis (Egyptian Cotton Leaf Worm)
Test compounds were applied by pipette from 10′000 ppm DMSO stock solutions into 24-well plates and mixed with agar. Lettuce seeds were placed onto the agar and the multi well plate was closed by another plate which contained also agar. After 7 days the compound was absorbed by the roots and the lettuce grew into the lid plate. The lettuce leaves were then cut off into the lid plate. Spodoptera eggs were pipetted through a plastic stencil onto a humid gel blotting paper and the lid plate was closed with it. The samples were assessed for mortality, anti-feedant effect and growth inhibition in comparison to untreated samples 6 days after infestation.

Myzus persicae [3] = experiment: Myzus persicae (green peach aphid) feeding/contact activity, sunflower leaf discs; conditions: foliar, 144 h, application rate 200 ppm, 6 days after infestation
Protocol: Example B5: Myzus persicae (Green Peach Aphid): Feeding/Contact Activity
(§1) Sunflower leaf discs were placed onto agar in a 24-well microtiter plate and sprayed with aqueous test solutions prepared from 10′000 ppm DMSO stock solutions. After drying, the leaf discs were infested with an aphid population of mixed ages. The samples were assessed for mortality 6 days after infestation.

Spodoptera littoralis [4] = experiment: Spodoptera littoralis (Egyptian cotton leaf worm), cotton leaf discs, L1 larvae; conditions: foliar, 72 h, application rate 200 ppm, L1 larvae on cotton leaf discs, 3 days after infestation
Protocol: Example B8: Spodoptera littoralis (Egyptian Cotton Leaf Worm)
Cotton leaf discs were placed onto agar in 24-well microtiter plates and sprayed with aqueous test solutions prepared from 10′000 ppm DMSO stock solutions. After drying the leaf discs were infested with five L1 larvae. The samples were assessed for mortality, anti-feeding effect, and growth inhibition in comparison to untreated samples 3 days after infestation. Control of Spodoptera littoralis by a test sample is given when at least one of the categories mortality, anti-feedant effect, and growth inhibition is higher than the untreated sample.

Anopheles stephensi = Anopheles stephensi (Indian malaria mosquito), dry deposit in 12 well plates, adult females; conditions: application rate 200 ppm in ethanol, after 48 h and/or 24 h
Protocol: Example B13: Anopheles stephensi (Indian Malaria Mosquito)
(§2) Test solutions, at an application rate of 200 ppm in ethanol, were applied to 12 well tissue culture plates. Once the deposits were dry, five, two to five day old adult female Anopheles stephensi were added to each well, and sustained with a 10% sucrose solution in a cotton wool plug. Assessment of knockdown was made one hour after introduction, and mortality was assessed at 24 and 48 hours after introduction.

Thrips tabaci = Thrips tabaci (onion thrips) feeding/contact activity, sunflower leaf discs; conditions: foliar, 144 h, application rate 200 ppm, population of mixed ages, 6 days after infestation
Protocol: Example B11: Thrips tabaci (Onion Thrips) Feeding/Contact Activity
as §1, with “on” for “onto”, “in” for “in a”, “plates” for “plate”, “drying” for “drying,”, “a thrips” for “an aphid”

Aedes aegypti = Aedes aegypti (yellow fever mosquito), dry deposit in 12 well plates, adult females; conditions: application rate 200 ppm in ethanol, after 48 h and/or 24 h
Protocol: Example B12: Aedes aegypti (Yellow Fever Mosquito)
as §2, with “Aedes aegypti” for “Anopheles stephensi”

Bemisia tabaci = Bemisia tabaci (cotton white fly) feeding/contact activity, cotton leaf discs; conditions: foliar, 144 h, application rate 200 ppm, adult white flies, 6 days after incubation
Protocol: Example B1: Bemisia tabaci (Cotton White Fly): Feeding/Contact Activity
Cotton leaf discs were placed on agar in 24-well microtiter plates and sprayed with aqueous test solutions prepared from 10′000 ppm DMSO stock solutions. After drying the leaf discs were infested with adult white flies. The samples were checked for mortality 6 days after incubation.

[5] = tested on: Frankliniella occidentalis; experiment: Frankliniella occidentalis (western flower thrips) feeding/contact activity, sunflower leaf discs; conditions: foliar, 168 h, application rate 200 ppm, population of mixed ages, 7 days after infestation
Protocol: Example B4: Frankliniella occidentalis (Western Flower Thrips): Feeding/Contact Activity
Sunflower leaf discs were placed on agar in 24-well microtiter plates and sprayed with aqueous test solutions prepared from […] stock solutions. After drying the leaf discs were infested with a Frankliniella population of mixed ages. The samples were assessed for mortality 7 days after infestation.

CCSc1cc2nc(-c3ncc(C(F)(F)F)cc3SCC)n(C)c2cn1 [Compound P1]
≥ 80%: percent effect (mortality or growth inhibition) at 200 ppm (Diabrotica Balteata) | percent effect (mortality or growth inhibition) at 200 ppm (Euschistus heros) | percent effect (mortality or growth inhibition) at 200 ppm (Plutella xylostella)

CCS(=O)(=O)c1cc(C(F)(F)F)cnc1-c1nc2cc(OC)ncc2n1C [Compound P2]
≥ 80%: mortality at 24 ppm (Myzus persicae [1])

CCS(=O)(=O)c1cc(C(F)(F)F)cnc1-c1nc2cc(OCC(F)F)ncc2n1C [Compound P3]
≥ 80%: percent effect (mortality or growth inhibition) at 200 ppm (Diabrotica Balteata) | percent effect (mortality, anti-feeding or growth inhibition) at 12.5 ppm (Spodoptera littoralis [2]) | percent effect (mortality or growth inhibition) at 200 ppm (Euschistus heros) | percent effect (mortality or growth inhibition) at 200 ppm (Plutella xylostella) | mortality at 200 ppm (Myzus persicae [3]) | percent control (mortality, anti-feedant effect or growth inhibition) at 200 ppm (Spodoptera littoralis [4])

CCS(=O)(=O)c1cc(C(F)(F)F)cnc1-c1nc2cc(OC(F)(F)Br)ncc2n1C [Compound P5, 6-[bromo(difluoro)methoxy]-2-[3-ethylsulfonyl-5-(trifluoromethyl)-2-pyridyl]-3-methyl-imidazo[4,5-c]pyridine]
≥ 80%: percent effect (mortality or growth inhibition) at 200 ppm (Diabrotica Balteata) | percent effect (mortality, anti-feeding or growth inhibition) at 12.5 ppm (Spodoptera littoralis [2]) | pest or weed control at 200 ppm (Anopheles stephensi) | percent effect (mortality or growth inhibition) at 200 ppm (Euschistus heros) | mortality at 200 ppm (Thrips tabaci) | pest or weed control at 200 ppm (Aedes aegypti) | mortality at 200 ppm (Myzus persicae [3]) | mortality at 200 ppm (Bemisia tabaci) | percent control (mortality, anti-feedant effect or growth inhibition) at 200 ppm (Spodoptera littoralis [4])

CCS(=O)(=O)c1cc(C(F)(F)F)cnc1-c1nc2cc(OC(F)F)ncc2n1C [Compound P6, 6-(difluoromethoxy)-2-[3-ethylsulfonyl-5-(trifluoromethyl)-2-pyridyl]-3-methyl-imidazo[4,5-c]pyridine]
≥ 80%: percent effect (mortality or growth inhibition) at 200 ppm (Diabrotica Balteata) | mortality at 200 ppm (Thrips tabaci) | percent effect (mortality or growth inhibition) at 200 ppm (Plutella xylostella) | mortality at 200 ppm (Myzus persicae [3]) | mortality at 200 ppm (Bemisia tabaci) | percent control (mortality, anti-feedant effect or growth inhibition) at 200 ppm (Spodoptera littoralis [4])

CCSc1cc(C(F)(F)F)cnc1-c1nc2cc(OC(F)F)ncc2n1C [Compound P7]
≥ 80%: percent control (mortality, anti-feedant effect or growth inhibition) at 200 ppm (Spodoptera littoralis [4])

CCS(=O)(=O)c1cc(C(F)(F)F)cnc1-c1nc2cc([S+]([O-])C(F)(F)F)ncc2n1C (stereo not drawn) [Compound P9, 2-[3-ethylsulfonyl-5-(trifluoromethyl)-2-pyridyl]-3-methyl-6-(trifluoromethylsulfinyl) imidazo[4,5-c]pyridine]
≥ 80%: percent effect (mortality or growth inhibition) at 200 ppm (Diabrotica Balteata) | percent effect (mortality, anti-feeding or growth inhibition) at 12.5 ppm (Spodoptera littoralis [2]) | pest or weed control at 200 ppm (Anopheles stephensi) | percent effect (mortality or growth inhibition) at 200 ppm (Euschistus heros) | mortality at 200 ppm [5] | mortality at 200 ppm (Thrips tabaci) | percent effect (mortality or growth inhibition) at 200 ppm (Plutella xylostella) | pest or weed control at 200 ppm (Aedes aegypti) | mortality at 200 ppm (Myzus persicae [3]) | mortality at 24 ppm (Myzus persicae [1]) | mortality at 200 ppm (Bemisia tabaci) | percent control (mortality, anti-feedant effect or growth inhibition) at 200 ppm (Spodoptera littoralis [4])

CCSc1cc(C(F)(F)F)cnc1-c1nc2cc(SC(F)(F)F)ncc2n1C [Compound P11, 2-[3-Ethylsulfanyl-5-(trifluoromethyl)-2-pyridyl]-3-methyl-6-(trifluoromethylsulfanyl)imidazo[4,5-c]pyridine]
≥ 80%: percent effect (mortality or growth inhibition) at 200 ppm (Diabrotica Balteata) | pest or weed control at 200 ppm (Anopheles stephensi) | percent effect (mortality or growth inhibition) at 200 ppm (Euschistus heros) | percent effect (mortality or growth inhibition) at 200 ppm (Plutella xylostella) | pest or weed control at 200 ppm (Aedes aegypti) | mortality at 200 ppm (Myzus persicae [3]) | percent control (mortality, anti-feedant effect or growth inhibition) at 200 ppm (Spodoptera littoralis [4])

CCSc1cc(C(F)(F)F)cnc1-c1nc2cc(OC(F)F)ncc2n1C [Compound P13, 6-(difluoromethoxy)-2-[3-ethylsulfanyl-5-(trifluoromethyl)-2-pyridyl]-3-methyl-imidazo[4,5-c]pyridine]
≥ 80%: percent effect (mortality or growth inhibition) at 200 ppm (Diabrotica Balteata) | pest or weed control at 200 ppm (Anopheles stephensi) | percent effect (mortality or growth inhibition) at 200 ppm (Euschistus heros) | percent effect (mortality or growth inhibition) at 200 ppm (Plutella xylostella) | pest or weed control at 200 ppm (Aedes aegypti) | mortality at 200 ppm (Myzus persicae [3]) | mortality at 200 ppm (Bemisia tabaci)

CCS(=O)(=O)c1cc(C(F)(F)F)cnc1-c1nc2cc(OCC(F)(F)F)ncc2n1C [Compound P14]
≥ 80%: percent effect (mortality or growth inhibition) at 200 ppm (Euschistus heros) | mortality at 200 ppm (Myzus persicae [3]) | mortality at 24 ppm (Myzus persicae [1])

CCS(=O)(=O)c1cc(C(F)(F)F)cnc1-c1nc2cc([S+]([O-])CC(F)(F)F)ncc2n1C (stereo not drawn) [Compound P15, 2-[3-Ethylsulfonyl-5-(trifluoromethyl)-2-pyridyl]-3-methyl-6-(2,2,2-trifluoroethylsulfinyl)imidazo[4,5-c]pyridine]
≥ 80%: percent effect (mortality or growth inhibition) at 200 ppm (Diabrotica Balteata) | percent effect (mortality, anti-feeding or growth inhibition) at 12.5 ppm (Spodoptera littoralis [2]) | pest or weed control at 200 ppm (Anopheles stephensi) | percent effect (mortality or growth inhibition) at 200 ppm (Euschistus heros) | mortality at 200 ppm (Thrips tabaci) | percent effect (mortality or growth inhibition) at 200 ppm (Plutella xylostella) | pest or weed control at 200 ppm (Aedes aegypti) | mortality at 200 ppm (Myzus persicae [3]) | mortality at 24 ppm (Myzus persicae [1]) | mortality at 200 ppm (Bemisia tabaci) | percent control (mortality, anti-feedant effect or growth inhibition) at 200 ppm (Spodoptera littoralis [4])

CCS(=O)(=O)c1cc(Br)cnc1-c1nc2cc(SC(F)(F)F)ncc2n1C [Compound P16]
≥ 80%: percent effect (mortality or growth inhibition) at 200 ppm (Diabrotica Balteata) | percent effect (mortality, anti-feeding or growth inhibition) at 12.5 ppm (Spodoptera littoralis [2]) | pest or weed control at 200 ppm (Anopheles stephensi) | percent effect (mortality or growth inhibition) at 200 ppm (Euschistus heros) | mortality at 200 ppm (Thrips tabaci) | percent effect (mortality or growth inhibition) at 200 ppm (Plutella xylostella) | pest or weed control at 200 ppm (Aedes aegypti) | mortality at 200 ppm (Myzus persicae [3]) | mortality at 200 ppm (Bemisia tabaci) | percent control (mortality, anti-feedant effect or growth inhibition) at 200 ppm (Spodoptera littoralis [4])

CCS(=O)(=O)c1cc(C(F)(F)F)cnc1-c1nc2cc(SCC(F)(F)F)ncc2n1C [Compound P17, 2-[3-Ethylsulfonyl-5-(trifluoromethyl)-2-pyridyl]-3-methyl-6-(2,2,2-trifluoroethylsulfanyl) imidazo[4,5-c]pyridine]
≥ 80%: percent effect (mortality or growth inhibition) at 200 ppm (Diabrotica Balteata) | mortality at 200 ppm (Myzus persicae [3])
